Data as given in patent US4497806A, “Triorganotin compounds, antifungal and antibacterial compositions containing same, and method of using same” (priority 1983, dated 1985).

Columns and labels:
[1] = tested on: Penicillium notatum (ATCC 9179); test: Antifungal activity, agar plate growth inhibition; assay type: cell-based; conditions: 14 days
Method: (§1) Dilutions of the sterile solutions were prepared and added to liquified potato dextrose agar (Difco) to yield final concentrations of 100, 10 and 1 μg/ml. The agar, containing the appropriate organotin compound, was poured into sterile petri dishes and allowed to solidify over night. The agar surface was inoculated centrally with a 2 mm^2 portion of the growth from a ten-day-old culture of each fungus of the group consisting of Aspergillus niger, Chaetomium globosum, Cladosporium carpophilum, Fusarium moniliforme, Myrotheium verrucaria, Penicillium notatum, Rhizopus stolonifer, Trichoderma viride and Trichophyton mentagrophytes, or from a two-day-old culture of Saccharomyces cerevisiae. Inoculated plates were incubated for 14 days and observations of growth inhibition were made by measuring the diameters of the colonies present on the agar surface.
(§2) A solvent was included in all evaluations, as were growth controls for all fungal species.
(§3) The following compounds were tested for comparative purposes: [drawing 6] These compounds were tested for antifungal activity in the same manner as the triorganotin 5-nitro-2-furoates of the present invention.

[2] = tested on: Trichophyton mentagrophytes (ATCC 9129); test: Antifungal activity, agar plate growth inhibition; assay type: cell-based; conditions: 14 days
Method: as §1, §2, §3

[3] = tested on: Fusarium moniliforme (ATCC 10052); test: Antifungal activity, agar plate growth inhibition; assay type: cell-based; conditions: 14 days
Method: as §1, §2, §3

[4] = tested on: Myrothecium verrucaria (ATCC 9095); test: Antifungal activity, agar plate growth inhibition; assay type: cell-based; conditions: 14 days
Method: as §1, §2, §3

[5] = tested on: Saccharomyces cerevisiae (ATCC 9896); test: Antifungal activity, agar plate growth inhibition; assay type: cell-based; conditions: 14 days
Method: as §1, §2, §3

[6] = tested on: Aspergillus niger (ATCC 12845); test: Antifungal activity, agar plate growth inhibition; assay type: cell-based; conditions: 14 days
Method: as §1, §2, §3

[7] = tested on: Trichoderma viride (ATCC 8678); test: Antifungal activity, agar plate growth inhibition; assay type: cell-based; conditions: 14 days
Method: as §1, §2, §3

[8] = tested on: Rhizopus stolonifer (ATCC 10404); test: Antifungal activity, agar plate growth inhibition; assay type: cell-based; conditions: 14 days
Method: as §1, §2, §3

[9] = tested on: Chaetomium globosum (ATCC 6205); test: Antifungal activity, agar plate growth inhibition; assay type: cell-based; conditions: 14 days
Method: as §1, §2, §3

Escherichia coli = test: Antibacterial activity, agar growth inhibition; assay type: cell-based; conditions: for growth inhibition: Gram-negative, 24 hours at 37° C.
Method: (§4) The agar was also needed with a 1:100 dilution of an 18-hour old culture of the desired bacterial species in sterile distilled water. The plates were incubated for 24 hours at 37° C. with each bacterial strain. Observations of bacterial growth inhibition were made following the appropriate incubation period.
(§5) A solvent control was included in all evaluations, as were growth controls for all bacteria species.
(§6) These compounds were tested for antibacterial activity in the same manner as the triorganotin 5-nitro-2-furoates of the present invention.
(§7) All of the bacteria tested were obtained from the culture collection of the Department of Biological Sciences, St. John's University.

Pseudomonas aeruginosa = test: Antibacterial activity, agar growth inhibition; assay type: cell-based; conditions: Gram-negative, 24 hours at 37° C.
Method: as §4, §5, §6, §7

[10] = tested on: Cladosporium carpophilium (ATCC 12117); test: Antifungal activity, agar plate growth inhibition; assay type: cell-based, Cladosporium carpophilum; conditions: 14 days
Method: as §1, §2, §3

Staphylococcus aureus = test: Antibacterial activity, agar growth inhibition; assay type: cell-based; set-up: key to growth inhibition: -: no inhibition of growth; +: partial inhibition; 2+: complete inhibition; conditions: Gram-positive
Method: The antibacterial activity of Compounds A-E was investigated by means of incorporating the compounds into sterile tryptic soy agar (Difco) at levels of 100, 10, and 1 μg/ml. The agar was also […] with a 1:100 dilution of an 18-hour old culture of the desired bacterial species in sterile distilled water. The plates were incubated for 24 hours at 37° C. with each bacterial strain. Observations of bacterial growth inhibition were made following the appropriate incubation period.
as §5
Comparative compounds 1-5 above were employed for comparison purposes. These compounds were tested for antibacterial activity in the same manner as the triorganotin 5-nitro-2-furoates of the present invention.
as §7
The ability of Compound B to inhibit the growth of other Gram-positive bacteria, using the same test procedures as described for the antibacterial activity determined in Table III above, is illustrated in Table IV below.

Compound | growth inhibition ([1]; 1 μg/ml) | growth inhibition ([1]; 10 μg/ml) | growth inhibition ([1]; 100 μg/ml) | growth inhibition ([2]; 1 μg/ml) | growth inhibition ([2]; 10 μg/ml) | growth inhibition ([2]; 100 μg/ml) | growth inhibition ([3]; 1 μg/ml) | growth inhibition ([3]; 10 μg/ml) | growth inhibition ([3]; 100 μg/ml) | growth inhibition ([4]; 1 μg/ml) | growth inhibition ([4]; 10 μg/ml) | growth inhibition ([4]; 100 μg/ml) | growth inhibition ([5]; 1 μg/ml) | growth inhibition ([5]; 10 μg/ml) | growth inhibition ([5]; 100 μg/ml) | growth inhibition ([6]; 1 μg/ml) | growth inhibition ([6]; 10 μg/ml) | growth inhibition ([6]; 100 μg/ml) | growth inhibition ([7]; 1 μg/ml) | growth inhibition ([7]; 10 μg/ml) | further results
Tricyclohexyltin 5-nitro-2-furoate [Compound C] | + | + | 2+ | + | + | + | + | + | + | + | + | + | - | - | - | + | + | + | + | + | growth inhibition ([7]; 100 μg/ml): +; growth inhibition ([8]; 1 μg/ml): -; growth inhibition ([8]; 10 μg/ml): +; growth inhibition ([8]; 100 μg/ml): +; growth inhibition ([9]; 1 μg/ml): +; growth inhibition ([9]; 10 μg/ml): +; growth inhibition ([9]; 100 μg/ml): +; growth inhibition (Escherichia coli; 1 μg/ml): -; growth inhibition (Escherichia coli; 10 μg/ml): -; growth inhibition (Escherichia coli; 100 μg/ml): -; growth inhibition (Pseudomonas aeruginosa; 1 μg/ml): -; growth inhibition (Pseudomonas aeruginosa; 10 μg/ml): -; growth inhibition (Pseudomonas aeruginosa; 100 μg/ml): -; growth inhibition ([10]; 1 μg/ml): +; growth inhibition ([10]; 10 μg/ml): +; growth inhibition ([10]; 100 μg/ml): +
N#CN=C(Nc1ccccc1)[S][Sn]([c]1ccccc1)([c]1ccccc1)[c]1ccccc1 [compound 2, N--phenyl, N'--cyano-S--(triphenylstannyl)-isothiourea, reference compound] | - | + | + | - | + | + | - | + | + | - | + | + | - | - | - | - | + | 2+ | - | - | growth inhibition ([7]; 100 μg/ml): +; growth inhibition ([8]; 1 μg/ml): -; growth inhibition ([8]; 10 μg/ml): +; growth inhibition ([8]; 100 μg/ml): 2+; growth inhibition ([9]; 1 μg/ml): -; growth inhibition ([9]; 10 μg/ml): +; growth inhibition ([9]; 100 μg/ml): +; growth inhibition (in words) (Escherichia coli; 100 μg/ml): partially; growth inhibition (Escherichia coli; 1 μg/ml): -; growth inhibition (Escherichia coli; 10 μg/ml): -; growth inhibition ([10]; 1 μg/ml): -; growth inhibition ([10]; 10 μg/ml): -; growth inhibition ([10]; 100 μg/ml): -
N--nitrophenyl, N--(triphenylstannyl) cyanamide [compound 1, reference compound] | + | + | + | + | + | 2+ | + | + | + | + | + | + | - | - | + | + | + | + | - | + | growth inhibition ([7]; 100 μg/ml): +; growth inhibition ([8]; 1 μg/ml): +; growth inhibition ([8]; 10 μg/ml): +; growth inhibition ([8]; 100 μg/ml): +; growth inhibition ([9]; 1 μg/ml): +; growth inhibition ([9]; 10 μg/ml): +; growth inhibition ([9]; 100 μg/ml): 2+; growth inhibition ([10]; 1 μg/ml): +; growth inhibition ([10]; 10 μg/ml): +; growth inhibition ([10]; 100 μg/ml): +
N#CN=C(Nc1ccccc1)[O][Sn]([c]1ccccc1)([c]1ccccc1)[c]1ccccc1 [Comparative Compound 3, N--phenyl, N'--cyano-O--(triphenylstannyl)-isourea, reference compound] | - | + | + | + | + | 2+ | - | + | + | + | + | + | - | - | 2+ | - | + | + | - | - | growth inhibition ([7]; 100 μg/ml): +; growth inhibition ([8]; 1 μg/ml): -; growth inhibition ([8]; 10 μg/ml): +; growth inhibition ([8]; 100 μg/ml): +; growth inhibition ([9]; 1 μg/ml): -; growth inhibition ([9]; 10 μg/ml): +; growth inhibition ([9]; 100 μg/ml): +; growth inhibition (in words) (Escherichia coli; 100 μg/ml): inactive; growth inhibition (Escherichia coli; 1 μg/ml): -; growth inhibition (Escherichia coli; 10 μg/ml): -; growth inhibition (Escherichia coli; 100 μg/ml): -; minimum concentration for complete growth inhibition (Staphylococcus aureus): 100 µg/mL; growth inhibition (Staphylococcus aureus; 1 μg/ml, 24 hours at 37° C.): -; growth inhibition ([10]; 1 μg/ml): -; growth inhibition ([10]; 10 μg/ml): +; growth inhibition ([10]; 100 μg/ml): +
